Source: patent US7662767B2, “Polynucleotide intercalator interceptors and inhibitors” (Materials Evolution and Development USA, Inc., priority 2000, dated 2010)

Test system: Drosophila salivary gland polytene chromosome
Assay: Removal of DNA binding stains from polytene chromosome bands by xanthine wash
Design: species or system Drosophila melagaster
Conditions: for Degree of Stain Removal, Exposure to AM (100 mM) / Degree of Stain Removal, Exposure to CAF (100 mM): 15 minute wash, static, hydrochloride
Protocol: In another implementation, giant polytene chromosomes were prepared by the squash technique from the salivary gland of Drosophila melagaster larva The salivary gland was placed on a microscope slide, squashed with a glass cover slide, fixed with acidic acid, rinsed with distilled water, and allowed to dry (kindly provided by Linda Chadwell, UTHSCSA-IBT). Three known DNA intercalators, ethidium bromide (98% purity, Aldrich Chemical Company, Milwaukee, Wis.), doxorubicin (98%, Sigma Chemnical Company, St. Louis, Mo.), and acridine orange plus the minor groove binding DNA stain Hoechst 33258 (98%, ACROS Chemical Company, NJ) were prepared in distilled water at a concentration of 1 mM (for chemical structures see FIG. 4-1, where acridine orange (3,6-bis [dimethylamino] acridine) is shown in Panel A, ethidium bromide is shown in Panel B, doxorubicin is shown in Panel C, Hoechst 33258 is shown in Panel D). The slides with prepared chromosomes were immersed in these stains for a period of 30 minutes, rinsed with distilled water, and dried at room temperature. Fluorescence microscopic analysis was conducted at λex 360 nm and photomicrographs were conducted on a Zeiss Model 63 Microscope with a xenon source fluorescent emitter. Photomicrographs were taken using Kodak Gold 35 mm ASA 1600 speed film noting the position of one individual chromosome on the slide. The stained slides were then subjected to 100 mM caffeine or 100 mM aminophylline under static conditions for a period of 15 minutes, rinsed with distilled water, then allowed to dry at room temperature. The presence of the same individual unstained chromosome in the field was confirmed by phase contrast microscopy. The chromosome was viewed again under fluorescence microscopy at […], and color recorded. Slides were re-stained by immersion in the 1 mM stain for a period of 30 minutes, rinsed with distilled water, and dried at room temperature, and the same individual chromosome was examined by fluorescence microscopy and the fluorescence color recorded.
FIG. 4-3 depicts three photomicrographs of the same Drosophila polytene chromosome: after staining with the DNA minor groove binder Hoechst 33258 dye (Panel A), after rinsing with CAF for 15 minutes (Panel B), and a phase contrast verification of the presence of the chromosome after the CAF rinse (Panel C). Table 4-4 summarizes the results from the experiments using caffeine (CAF) and aminophylline (AM) to remove the following DNA intercalators: doxorubicin, ethidium bromide, acridine orange, and the DNA minor groove binder Hoechst 33258 from their binding sites within polytene chromosomes. […] With all DNA intercalators, the staining of chromosome bands was intense before the xanthine rinses and was again intense following re-staining.

With `CN(C)c1ccc2cc3ccc(N(C)C)cc3nc2c1.Cl` [AO, 3,6-bis[dimethylamino]acridine hydrochloride] the “Re-staining following Xanthine Exposure” value (1 mM stain, 30 minutes) was “Complete”, the “Staining before Xanthine Exposure” value (1 mM stain, 30 minutes) was “Banding” and the “Degree of Stain Removal, Exposure to AM (100 mM)” value was “completely removed”. For the same compound, the “Degree of Stain Removal, Exposure to CAF (100 mM)” value was “did not completely remove the stain”, the “Degree of Stain Removal, Exposure to AM (100 mM)” value (listed as Acridine Orange) was “Complete” and the “Degree of Stain Removal, Exposure to CAF (100 mM)” value (listed as Acridine Orange) was “Almost”.
